Data taken from patent US11331369B2, “Endoparasitic depsipeptides” (Zoetis Services LLC, priority 2017, dated 2022).

Tests used:
[1] = test system: microfilariae of Dirofilaria immitis; test: Dirofilaria immitis, Microfilaria (DiMF) In vitro Assay; type: cell-based; conditions: 72 h, read-out: DiMF Minimum Effective Dose (MED), approximately 72 hours incubation, microfilariae assessed for survival or paralysis
[2] = test system: 4th stage larvae (L4) of Dirofilaria immitis; test: Dirofilaria immitis, L4 Stage (DiL4) In Vitro Assay; type: cell-based; conditions: Dirofilaria immitis, 72 h, read-out: DiL4 Minimum Effective Dose (MED), approximately 72 hours incubation; L4 larvae assessed for survival or paralysis
[3] = Canine pharmacokinetic (PK) study, single IV or oral dose; conditions: dog; for Vd / clearance / half-life / Cmax: in vivo; for F: oral 1 mg/kg
[4] = test system: third stage larvae of Haemonchus contortus; test: Haemonchus contortus L3 (HcL3) Assay; type: cell-based; conditions: 96 h, read-out: HcL3 Minimum Effective Dose (MED)

## CC(C)C[C@H]1C(=O)O[C@H](Cc2ccc(Cn3nc(C(F)(F)F)cc3C(F)(F)F)cc2)C(=O)N(C)[C@@H](CC(C)C)C(=O)O[C@H](C)C(=O)N(C)[C@@H](CC(C)C)C(=O)O[C@H](Cc2ccc(Cn3nc(C(F)(F)F)cc3C(F)(F)F)cc2)C(=O)N(C)[C@@H](CC(C)C)C(=O)O[C@H](C)C(=O)N1C [Example 1b-15, (3S,6R,9S,12R,15S,18R,21S,24R)-6,18-bis[(4-{[3,5-bis(trifluoromethyl)-1H-pyrazol-1-yl]methyl}phenyl)methyl]-4,10,12,16,22,24-hexamethyl-3,9,15,21-tetrakis(2-methylpropyl)-1,7,13,19-tetraoxa-4,10,16,22-tetraazacyclotetracosan-2,5,8,11,14,17,20,23-octaone]
[1]
  minimal effective concentration: 0.01 to 0.1 µM
[2]
  minimal effective concentration: ≤ 0.0001 µM
[3]; iv, 0.2 mg/kg
  Vd: 0.32 L/kg
  clearance: 0.05 mL/min/kg
  half-life: 2.79 days
[3]; po, 1 mg/kg
  Cmax: 5 ng/mL
[3]
  F: 0.2%

## CC(C)C[C@H]1C(=O)O[C@H](Cc2ccc(Cn3cc(C4CC4)cn3)cc2)C(=O)N(C)[C@@H](CC(C)C)C(=O)O[C@H](C)C(=O)N(C)[C@@H](CC(C)C)C(=O)O[C@H](Cc2ccc(Cn3cc(C4CC4)cn3)cc2)C(=O)N(C)[C@@H](CC(C)C)C(=O)O[C@H](C)C(=O)N1C [Example 1b-45, (3S,6R,9S,12R,15S,18R,21S,24R)-6,18-bis(4-((4-cyclopropyl-1H-pyrazol-1-yl)methyl)benzyl)-3,9,15,21-tetraisobutyl-4,10,12,16,22,24-hexamethyl-1,7,13,19-tetraoxa-4,10,16,22-tetraazacyclotetracosan-2,5,8,11,14,17,20,23-octaone]
[1]
  minimal effective concentration: 0.01 to 0.1 µM
[3]; po, 1 mg/kg
  Cmax: 127 ng/mL
  half-life: 4.33 days

## CC(C)C[C@H]1C(=O)O[C@H](Cc2ccc(Cn3ccc(-c4ccccc4)n3)cc2)C(=O)N(C)[C@@H](CC(C)C)C(=O)O[C@H](C)C(=O)N(C)[C@@H](CC(C)C)C(=O)O[C@H](Cc2ccc(Cn3ccc(-c4ccccc4)n3)cc2)C(=O)N(C)[C@@H](CC(C)C)C(=O)O[C@H](C)C(=O)N1C [Example 1b-68, (3S,6R,9S,12R,15S,18R,21S,24R)-3,9,15,21-tetraisobutyl-4,6,10,16,18,22-hexamethyl-12,24-bis(4-((3-phenyl-1H-pyrazol-1-yl)methyl)benzyl)-1,7,13,19-tetraoxa-4,10,16,22-tetraazacyclotetracosan-2,5,8,11,14,17,20,23-octaone]
[2]
  minimal effective concentration: 0.001 to 0.01 µM
[3]; iv, 0.2 mg/kg
  Vd: 7.58 L/kg
  clearance: 1 mL/min/kg
  half-life: 6.79 days
[3]; po, 1 mg/kg
  Cmax: 39 ng/mL
[3]
  F: 4%

## CC(C)C[C@H]1C(=O)O[C@H](Cc2ccc(Cn3cnc(Br)c3)cc2)C(=O)N(C)[C@@H](CC(C)C)C(=O)O[C@H](C)C(=O)N(C)[C@@H](CC(C)C)C(=O)O[C@H](Cc2ccccc2)C(=O)N(C)[C@@H](CC(C)C)C(=O)O[C@H](C)C(=O)N1C [Example 8-15, (3S,6R,9S,12R,15S,18R,21S,24R)-6-benzyl-18-(4-((4-bromo-1H-imidazol-1-yl)methyl)benzyl)-3,9,15,21-tetraisobutyl-4,10,12,16,22,24-hexamethyl-1,7,13,19-tetraoxa-4,10,16,22-tetraazacyclotetracosan-2,5,8,11,14,17,20,23-octaone]
[1]
  minimal effective concentration: 0.001 to 0.01 µM
[2]
  minimal effective concentration: 0.0001 to 0.001 µM
[4]
  minimal effective concentration: 1 to 10 µM

## CC(C)C[C@H]1C(=O)O[C@H](Cc2ccc(Cn3cc(C(F)(F)F)ccc3=O)cc2)C(=O)N(C)[C@@H](CC(C)C)C(=O)O[C@H](C)C(=O)N(C)[C@@H](CC(C)C)C(=O)O[C@H](Cc2ccc(Cn3cc(C(F)(F)F)ccc3=O)cc2)C(=O)N(C)[C@@H](CC(C)C)C(=O)O[C@H](C)C(=O)N1C [Example 9-22, (3S,6R,9S,12R,15S,18R,21S,24R)-3,9,15,21-tetraisobutyl-4,6,10,16,18,22-hexamethyl-12,24-bis(4-((2-oxo-5-(trifluoromethyl)pyridin-1 (2H)-yl)methyl)benzyl)-1,7,13,19-tetraoxa-4,10,16,22-tetraazacyclotetracosan-2,5,8,11,14,17,20,23-octaone]
[1]
  minimal effective concentration: 0.001 to 0.01 µM
[2]
  minimal effective concentration: 0.001 to 0.01 µM
[4]
  minimal effective concentration: 1 to 10 µM

## CC(C)C[C@H]1C(=O)O[C@H](Cc2ccc(CN3CCOc4ccccc43)cc2)C(=O)N(C)[C@@H](CC(C)C)C(=O)O[C@H](C)C(=O)N(C)[C@@H](CC(C)C)C(=O)O[C@H](Cc2ccc(CN3CCOc4ccccc43)cc2)C(=O)N(C)[C@@H](CC(C)C)C(=O)O[C@H](C)C(=O)N1C [Example 9-26, (3S,6R,9S,12R,15S,18R,21S,24R)-6,18-bis(4-((2,3-dihydro-4H-benzo[b][1,4]oxazin-4-yl)methyl)benzyl)-3,9,15,21-tetraisobutyl-4,10,12,16,22,24-hexamethyl-1,7,13,19-tetraoxa-4,10,16,22-tetraazacyclotetracosan-2,5,8,11,14,17,20,23-octaone]
[2]
  minimal effective concentration: 0.0001 to 0.001 µM
[3]; iv, 0.2 mg/kg
  Vd: 0.6 L/kg
  clearance: 0.1 mL/min/kg
  half-life: 4.42 days
[3]; po, 1 mg/kg
  Cmax: 71 ng/mL
[3]
  F: 1%

## Cc1ccc(C#N)n1Cc1ccc(C[C@H]2OC(=O)[C@H](CC(C)C)N(C)C(=O)[C@@H](C)OC(=O)[C@H](CC(C)C)N(C)C(=O)[C@@H](Cc3ccc(Cn4c(C)ccc4C#N)cc3)OC(=O)[C@H](CC(C)C)N(C)C(=O)[C@@H](C)OC(=O)[C@H](CC(C)C)N(C)C2=O)cc1 [Example 9-48, 1,1′-(((((2R,5S,8R,11 S,14R,17S,20R,23S)-5,11,17,23-tetraisobutyl-4,8,10,16,20,22-hexamethyl-3,6,9,12,15,18,21,24-octaoxo-1,7,13,19-tetraoxa-4,10,16,22-tetraazacyclotetracosane-2,14-diyl)bis(methylene))bis(4,1-phenylene))bis(methylene))bis(5-methyl-1H-pyrrole-2-carbonitrile)]
[1]
  minimal effective concentration: 0.001 to 0.01 µM
[2]
  minimal effective concentration: ≤ 0.0001 µM
[4]
  minimal effective concentration: ≤ 1 µM

## CC(C)C[C@H]1C(=O)O[C@H](Cc2ccc(Cn3ncnc3C(C)(C)C)cc2)C(=O)N(C)[C@@H](CC(C)C)C(=O)O[C@H](C)C(=O)N(C)[C@@H](CC(C)C)C(=O)O[C@H](Cc2ccc(Cn3ncnc3C(C)(C)C)cc2)C(=O)N(C)[C@@H](CC(C)C)C(=O)O[C@H](C)C(=O)N1C [Example 9-51, (3S,6R,9S,12R,15S,18R,21S,24R)-6,18-bis(4-((5-(tert-butyl)-1H-1,2,4-triazol-1-yl)methyl)benzyl)-3,9,15,21-tetraisobutyl-4,10,12,16,22,24-hexamethyl-1,7,13,19-tetraoxa-4,10,16,22-tetraazacyclotetracosan-2,5,8,11,14,17,20,23-octaone]
[1]
  minimal effective concentration: 0.001 to 0.01 µM
[2]
  minimal effective concentration: 0.001 to 0.01 µM
[4]
  minimal effective concentration: 1 to 10 µM

## CC(C)C[C@H]1C(=O)O[C@H](Cc2ccc(Cn3ncnc3C3CCCC3)cc2)C(=O)N(C)[C@@H](CC(C)C)C(=O)O[C@H](C)C(=O)N(C)[C@@H](CC(C)C)C(=O)O[C@H](Cc2ccc(Cn3ncnc3C3CCCC3)cc2)C(=O)N(C)[C@@H](CC(C)C)C(=O)O[C@H](C)C(=O)N1C [Example 9-52, (3S,6R,9S,12R,15S,18R,21S,24R)-6,18-bis(4-((5-cyclopentyl-1H-1,2,4-triazol-1-yl)methyl)benzyl)-3,9,15,21-tetraisobutyl-4,10,12,16,22,24-hexamethyl-1,7,13,19-tetraoxa-4,10,16,22-tetraazacyclotetracosan-2,5,8,11,14,17,20,23-octaone]
[1]
  minimal effective concentration: 0.001 to 0.01 µM
[2]
  minimal effective concentration: 0.001 to 0.01 µM
[4]
  minimal effective concentration: 1 to 10 µM

## CC(C)Cc1ncnn1Cc1ccc(C[C@H]2OC(=O)[C@H](CC(C)C)N(C)C(=O)[C@@H](C)OC(=O)[C@H](CC(C)C)N(C)C(=O)[C@@H](Cc3ccc(Cn4ncnc4CC(C)C)cc3)OC(=O)[C@H](CC(C)C)N(C)C(=O)[C@@H](C)OC(=O)[C@H](CC(C)C)N(C)C2=O)cc1 [Example 9-53, (3S,6R,9S,12R,15S,18R,21S,24R)-3,9,15,21-tetraisobutyl-6,18-bis(4-((5-isobutyl-1H-1,2,4-triazol-1-yl)methyl)benzyl)-4,10,12,16,22,24-hexamethyl-1,7,13,19-tetraoxa-4,10,16,22-tetraazacyclotetracosan-2,5,8,11,14,17,20,23-octaone]
[1]
  minimal effective concentration: 0.001 to 0.01 µM
[2]
  minimal effective concentration: 0.001 to 0.01 µM
[4]
  minimal effective concentration: 1 to 10 µM

## CC(C)C[C@H]1C(=O)O[C@H](Cc2ccc(Cn3ncnc3CC(C)(C)C)cc2)C(=O)N(C)[C@@H](CC(C)C)C(=O)O[C@H](C)C(=O)N(C)[C@@H](CC(C)C)C(=O)O[C@H](Cc2ccc(Cn3ncnc3CC(C)(C)C)cc2)C(=O)N(C)[C@@H](CC(C)C)C(=O)O[C@H](C)C(=O)N1C [Example 9-56, (3S,6R,9S,12R,15S,18R,21S,24R)-3,9,15,21-tetraisobutyl-4,6,10,16,18,22-hexamethyl-12,24-bis(4-((5-neopentyl-1H-1,2,4-triazol-1-yl)methyl)benzyl)-1,7,13,19-tetraoxa-4,10,16,22-tetraazacyclotetracosan-2,5,8,11,14,17,20,23-octaone]
[1]
  minimal effective concentration: 0.001 to 0.01 µM
[2]
  minimal effective concentration: 0.001 to 0.01 µM
[4]
  minimal effective concentration: 1 to 10 µM

## Cc1ccc(C#N)n1Cc1ccc(C[C@H]2OC(=O)[C@H](CC(C)C)N(C)C(=O)[C@@H](C)OC(=O)[C@H](CC(C)C)N(C)C(=O)[C@@H](Cc3ccccc3)OC(=O)[C@H](CC(C)C)N(C)C(=O)[C@@H](C)OC(=O)[C@H](CC(C)C)N(C)C2=O)cc1 [Example 10-30, 1-(4-(((2R,5S,8R,11S,14R,17S,20R,23S)-14-benzyl-5,11,17,23-tetraisobutyl-4,8,10,16,20,22-hexamethyl-3,6,9,12,15,18,21,24-octaoxo-1,7,13,19-tetraoxa-4,10,16,22-tetraazacyclotetracosan-2-yl)methyl)benzyl)-5-methyl-1H-pyrrole-2-carbonitrile]
[1]
  minimal effective concentration: 0.001 to 0.01 µM
[2]
  minimal effective concentration: 0.0001 to 0.001 µM
[4]
  minimal effective concentration: 1 to 10 µM
